Results on eight compounds are retold here after patent publication US5010104A, “Tricyclic compounds” (Kyowa Hakko Kogyo Co., Ltd., priority 1987, dated 1991).

The target in data set [1] is T1, TXA2 /prostaglandin H2 receptor (Cavia porcellus, UniProt A0A286Y4I8).
T1 construct: platelet rich plasma (PRP) was collected; endogenous in cells; host or cells: platelets in platelet rich plasma from male guinea pigs (Hartley strain)
T1 sequence (A0A286Y4I8 1-347): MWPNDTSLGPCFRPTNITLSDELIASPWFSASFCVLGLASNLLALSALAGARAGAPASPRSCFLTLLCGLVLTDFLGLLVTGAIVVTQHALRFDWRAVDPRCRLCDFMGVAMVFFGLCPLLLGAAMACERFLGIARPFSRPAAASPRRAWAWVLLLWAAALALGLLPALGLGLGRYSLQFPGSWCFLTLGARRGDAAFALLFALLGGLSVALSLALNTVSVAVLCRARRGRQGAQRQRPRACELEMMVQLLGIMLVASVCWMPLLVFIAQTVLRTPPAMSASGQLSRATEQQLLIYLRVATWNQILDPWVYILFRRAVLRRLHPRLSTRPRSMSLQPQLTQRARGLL
Briefly: Test on Anti-platelet Activity (TXA2 Antagonizing Test): inhibition of U-46619-induced platelet aggregation in guinea pig platelet rich plasma. The note with it: minimum concentration inhibiting platelet aggregation by 30% or more; U-46619 0.5-1 μM; guinea pig PRP; 3 minutes pretreatment. The data set is classed as cell-based. The protocol:
Test on Anti-platelet Activity (TXA2 Antagonizing Test)
Using guinea pig platelet, influence of the compounds in accordance with the present invention on platelet aggregation induced by U-46619 (9,11-dideoxy-9α,11a-methanoepoxyprostaglandin F2 α; manufactured by Cayman Chemica Co., Ltd. ) which was a TXA2 /prostaglandin H2 receptor stimulant was examined.
Male guinea pig (Hartlet strain; body weight, 300 to 600 g) was anesthesized by intraperitoneal administration of sodium pentobarbital (30 mg/kg) and blood was collected from the descending aorta of the abdomen with a 1/10 volume of sodium citrate. By centrifugation (KC-70: manufactured by Kubota Co., Ltd.) at 800 rpm for 10 minutes, platelet rich plasma (PRP) was collected. Platelet aggregation induced by U-46619 (0.5-1 μM) was determined by photometry [Born, G. V. R. et al., Nature (London), 194, 927-929 (1962)]. A test compound was pretreated before 3 minutes and an ability of inhibiting aggregation was measured. The minimum concentration of inhibiting platelet aggregation by 30% or more was defined as the minimum effective concentration (MEC) of the test compound.

For another data set, the system named is dd strain male mice. As to the kind of experiment: Acute Toxicity Test: minimum lethal dose, mortality observed for seven days. The format is in vivo. The note with it: mortality over seven days; for Acute Toxicity (MLD) ip: intraperitoneal (ip; 100 mg/kg); for Acute Toxicity (MLD) po: oral (po; 300 mg/kg). The protocol: Using three dd strain male mice weighing 20±1 g, a test compound was orally (po; 300 mg/kg) or intraperiotoneally (ip; 100 mg/kg) administered. MLD (the minimum lethal dose) was determined by observing the mortality for seven days after administration.

As to `O=C(O)c1ccc2c(c1)C(SCCNS(=O)(=O)c1ccccc1)c1cc(Br)ccc1CO2` (stereo not drawn) [Compound 6b, 9-Bromo-11-[2-[(phenylsulfonyl)amino]ethyl]thio-6,11-dihydrodibenz[b,e]oxepin-2-carboxylic acid], the “TXA2 Antagonizing Activity (MEC)” value in data set [1] came to 0.03 µg/mL. Moreover, in the data set on dd strain male mice, the “Acute Toxicity (MLD) ip” value is above 100 mg/kg and the “Acute Toxicity (MLD) po” value is given as above 300 mg/kg.

Consider `O=C(O)c1ccc2c(c1)C(SCCNS(=O)(=O)c1cccc3cccnc13)c1ccccc1CO2` (stereo not drawn) [Compound 16b, 11-[2-[(8-Quinolylsulfonyl)amino]ethyl]thio-6,11-dihydrodibenz[b,e]oxepin-2-carboxylic acid], for which the “TXA2 Antagonizing Activity (MEC)” value in data set [1] was determined as 3 µg/mL. Also, in the data set with dd strain male mice, the “Acute Toxicity (MLD) ip” value was above 100 mg/kg and the “Acute Toxicity (MLD) po” value is above 300 mg/kg.

Take `O=C(O)Cc1ccc2c(c1)/C(=C/CCNS(=O)(=O)c1ccccc1)c1ccccc1CO2` [Compound E-29b]: in data set [1], the “TXA2 Antagonizing Activity (MEC)” value was determined as 1 µg/mL. Also, in the data set with dd strain male mice, the “Acute Toxicity (MLD) ip” value is on record as above 100 mg/kg and the “Acute Toxicity (MLD) po” value was above 300 mg/kg.

For the compound `COc1ccccc1C(=O)NCCSC1c2ccccc2COc2ccc(C(=O)O)cc21` (stereo not drawn) [Compound 33b, 11-[2-[(2-Methoxybenzoyl)amino]ethyl]thio-6,11-dihydrodibenz[b,e]oxepin-2-carboxylic acid], the “TXA2 Antagonizing Activity (MEC)” value in data set [1] came out at 0.3 µg/mL. In addition, in the data set with dd strain male mice, the “Acute Toxicity (MLD) ip” value is recorded as above 100 mg/kg and the “Acute Toxicity (MLD) po” value is listed as above 300 mg/kg.

As to `O=C(O)COc1ccc(CCNS(=O)(=O)c2ccccc2)cc1` [BM13177, reference compound], the “TXA2 Antagonizing Activity (MEC)” value in data set [1] was 3 µg/mL. In addition, in the data set with dd strain male mice, the “Acute Toxicity (MLD) ip” value is listed as above 100 mg/kg and the “Acute Toxicity (MLD) po” value is recorded as above 300 mg/kg.

On to `O=C(O)c1ccc2c(c1)C(SCCNS(=O)(=O)c1ccc(F)cc1)c1ccccc1CO2` (stereo not drawn) [Compound 10b, 11-[2-[(4-Fluorophenylsulfonyl)amino]ethyl]thio-6,11-dihydrodibenz[b,e]oxepin-2-carboxylic acid], for which the “TXA2 Antagonizing Activity (MEC)” value in data set [1] was found to be 0.3 µg/mL. Further, in the data set on dd strain male mice, the “Acute Toxicity (MLD) ip” value was above 100 mg/kg and the “Acute Toxicity (MLD) po” value is on record as above 300 mg/kg.

Take `O=C(O)c1ccc2c(c1)C(SCCNS(=O)(=O)c1ccccc1)c1ccccc1CS2` (stereo not drawn) [Compound 55b, 11-[2-[(Phenylsulfonyl)amino]ethyl]thio-6,11-dihydrodibenzo[b,e]thiepin-2carboxylic acid]: in data set [1], the “TXA2 Antagonizing Activity (MEC)” value is 3 µg/mL. In addition, in the data set with dd strain male mice, the “Acute Toxicity (MLD) ip” value was above 100 mg/kg and the “Acute Toxicity (MLD) po” value is given as above 300 mg/kg.

`O=C(O)c1ccc2c(c1)C(SCCNS(=O)(=O)c1cccs1)c1ccccc1CO2` (stereo not drawn) [Compound 15b, 11-[2-[(2-Thienylsulfonyl)amino]ethyl]thio-6,11-dihydrodibenz[b,e]oxepin-2-carboxylic acid]: the “TXA2 Antagonizing Activity (MEC)” value in data set [1] is 0.3 µg/mL. Also, in the data set with dd strain male mice, the “Acute Toxicity (MLD) ip” value is recorded as above 100 mg/kg and the “Acute Toxicity (MLD) po” value is above 300 mg/kg.
